Source: US7265107B2, “Rifamycin C-11 oxime cyclo derivatives effective against drug-resistant microbes” (Cumbre Pharmaceuticals Inc., priority 2004, dated 2007)
Converted amounts (≈) assume the structure as drawn.

Assays:
Type in all cases: cell-based
[1] = system: Streptococcus pneumoniae ATCC6303; settings: rifS, THY Broth with 1 mg/mL catalase, 5% CO2, 37° C., read-out: Antimicrobial activity (MIC)
[2] = system: Enterococcus faecalis ATCC29212; settings: rifS, BHI Broth, 37° C., read-out: Antimicrobial activity (MIC)
[3] = system: Haemophilus influenzae ATCC10211; settings: rifS, BHI Broth with NAD and hematin, 37° C., read-out: Antimicrobial activity (MIC)
[4] = system: Staphylococcus aureus EN1252a gvrA^S84L grlA^S80F; assay: microbe, parasite or virus in culture; settings: cipR, Cation-Adjusted Mueller-Hinton Broth, 37° C., read-out: Antimicrobial activity (MIC)
Method: Representative compounds were assayed for antimicrobial activity as follows: Minimum Inhibitory Concentrations (“MICs”) were determined by the microbroth dilution method as per NCCLS guidelines (National Committee for Clinical Laboratory Standards. 2000. Methods for dilution antimicrobial susceptibility tests for bacteria that grow aerobically, 5th ed. M7-A5. National Committee for Clinical Laboratory Standards, Wayne, Pa.), except that all growth incubations were conducted at 37° C. Bacterial cultures were tested in the following bacteriological media: S. aureus, S. epidermidis, and E. coli in Cation-Adjusted Mueller-Hinton Broth, S. pneumoniae in THY Broth supplemented with 1 mg/mL catalase under 5% CO2 atmosphere, S. pyogenes in THY Broth, E. faecalis in BHI Broth, H. influenzae in BHI Broth supplemented with 0.75 μL of 1 mg/mL NAD and 150 μL of 1 mg/ml hematin per 5 mL, and M. smegmatis in Middlebrook Broth plus ADC Enrichment.
S. aureus EN1252a gyrA^S84L grlA^S80F is a quinolone-resistant strain due to double mutations to the genes confer DNA gyrase and topoisomerase IV.

SMILES	MIC [1]	MIC [2]	MIC [3]	MIC [4]
CO[C@H]1/C=C/O[C@@]2(C)Oc3c(C)c(O)c4c(=O)c(c5oc6cc(N7CCN(CC(C)C)CC7)ccc6nc-5c4c3/C2=N/O)NC(=O)/C(C)=C\C=C\[C@H](C)[C@H](O)[C@@H](C)[C@@H](O)[C@@H](C)[C@H](OC(C)=O)[C@@H]1C [Example 20, 11-Deoxy-11-hydroxyimino-1′,4-didehydro-1-deoxy-1,4-dihydro-5′-(4-isobutyl-1-piperazinyl)-1-oxo-rifamycin VIII]	0.06 to 31 ng/mL (≈ 0.0638 to 33 nM)	500 to 31200 ng/mL (≈ 532 to 33200 nM)	125 to 8000 ng/mL (≈ 133 to 8510 nM)	0.5 to 125 ng/mL (≈ 0.532 to 133 nM)
CO[C@H]1/C=C/O[C@@]2(C)Oc3c(C)c(O)c4c(=O)c(c5oc6cc(N7CCN(C)CC7)cc(C)c6nc-5c4c3/C2=N/O)NC(=O)/C(C)=C\C=C\[C@H](C)[C@H](O)[C@@H](C)[C@@H](O)[C@@H](C)[C@H](OC(C)=O)[C@@H]1C [Example 19, 11-Deoxy-11-hydroxyimino-1′,4-didehydro-1-deoxy-1,4-dihydro-3′-methyl-5′-(4-methyl-1-piperazinyl)-1-oxo-rifamycin VIII]	0.06 to 31 ng/mL (≈ 0.0658 to 34 nM)	500 to 31200 ng/mL (≈ 548 to 34300 nM)	125 to 8000 ng/mL (≈ 137 to 8770 nM)	0.5 to 125 ng/mL (≈ 0.548 to 137 nM)
CO[C@H]1/C=C/O[C@@]2(C)Oc3c(C)c(O)c4c(=O)c(c5oc6cc(N7CCC(N8CCCCC8)CC7)cc(O)c6nc-5c4c3/C2=N/O)NC(=O)/C(C)=C\C=C\[C@H](C)[C@H](O)[C@@H](C)[C@@H](O)[C@@H](C)[C@H](OC(C)=O)[C@@H]1C [Example 13, 11-Deoxy-11-hydroxyimino-1′,4-didehydro-1-deoxy-1,4-dihydro-3′-hydroxy-5′-[(1,4′)-bipiperidinyl-1′-yl]-1-oxo-rifamycin VIII]	0.06 to 31 ng/mL (≈ 0.0611 to 31.6 nM)	500 to 31200 ng/mL (≈ 509 to 31800 nM)	125 to 8000 ng/mL (≈ 127 to 8150 nM)	0.5 to 125 ng/mL (≈ 0.509 to 127 nM)
CO[C@H]1/C=C/O[C@@]2(C)Oc3c(C)c(O)c4c(=O)c(c5oc6cc(N7CCN(C(C)C)CC7)cc(O)c6nc-5c4c3/C2=N/O)NC(=O)/C(C)=C\C=C\[C@H](C)[C@H](O)[C@@H](C)[C@@H](O)[C@@H](C)[C@H](OC(C)=O)[C@@H]1C [Example 9, 11-Deoxy-11-hydroxyimino-1′,4-didehydro-1-deoxy-1,4-dihydro-3′-hydroxy-5′-(4-isopropyl-1-piperazinyl)-1-oxo-rifamycin VIII]	0.06 to 31 ng/mL (≈ 0.0637 to 32.9 nM)	500 to 31200 ng/mL (≈ 531 to 33200 nM)	125 to 8000 ng/mL (≈ 133 to 8490 nM)	0.5 to 125 ng/mL (≈ 0.531 to 133 nM)
CO[C@H]1/C=C/O[C@@]2(C)Oc3c(C)c(O)c4c(=O)c(c5oc6cc(N7CCN(CC8CCN(C)CC8)CC7)cc(O)c6nc-5c4c3/C2=N/O)NC(=O)/C(C)=C\C=C\[C@H](C)[C@H](O)[C@@H](C)[C@@H](O)[C@@H](C)[C@H](OC(C)=O)[C@@H]1C [Example 12, 11-Deoxy-11-hydroxyimino-1′,4-didehydro-1-deoxy-1,4-dihydro-3′-hydroxy-5 V-[4-(1-Methyl-piperidin-4-ylmethyl)-1-piperazinyl]-1-oxo-rifamycin VII]	0.06 to 31 ng/mL (≈ 0.0593 to 30.7 nM)	500 to 31200 ng/mL (≈ 494 to 30900 nM)	125 to 8000 ng/mL (≈ 124 to 7910 nM)	0.5 to 125 ng/mL (≈ 0.494 to 124 nM)
CO[C@H]1/C=C/O[C@@]2(C)Oc3c(C)c(O)c4c(=O)c(c5oc6cc(N7CCN(CCOCCO)CC7)cc(O)c6nc-5c4c3/C2=N/O)NC(=O)/C(C)=C\C=C\[C@H](C)[C@H](O)[C@@H](C)[C@@H](O)[C@@H](C)[C@H](OC(C)=O)[C@@H]1C [Example 17, 11-Deoxy-11-hydroxyimino-1′,4-didehydro-1-deoxy-1,4-dihydro-3′-hydroxy-5′-{4-[2-(2-hydroxy-ethoxy)-ethyl]-piperazin-1-yl}-1-oxo-rifamycin VIII]	0.06 to 31 ng/mL (≈ 0.0607 to 31.4 nM)	500 to 31200 ng/mL (≈ 506 to 31600 nM)	125 to 8000 ng/mL (≈ 127 to 8100 nM)	0.5 to 125 ng/mL (≈ 0.506 to 127 nM)
CO[C@H]1/C=C/O[C@@]2(C)Oc3c(C)c(O)c4c(=O)c(c5oc6cc(N7CC(C)NC(C)C7)cc(O)c6nc-5c4c3/C2=N/O)NC(=O)/C(C)=C\C=C\[C@H](C)[C@H](O)[C@@H](C)[C@@H](O)[C@@H](C)[C@H](OC(C)=O)[C@@H]1C (stereo partly shown) [Example 14, 11-Deoxy-11-hydroxyimino-1′,4-didehydro-1-deoxy-1,4-dihydro-3′-hydroxy-5′-(3,5-dimethyl-1-piperazinyl)-1-oxo-rifamycin VIII]	0.06 to 31 ng/mL (≈ 0.0647 to 33.4 nM)	500 to 31200 ng/mL (≈ 539 to 33700 nM)	125 to 8000 ng/mL (≈ 135 to 8620 nM)	0.5 to 125 ng/mL (≈ 0.539 to 135 nM)
CO[C@H]1/C=C/O[C@@]2(C)Oc3c(C)c(O)c4c(=O)c(c5oc6cc(N7CCN(CC(C)C)CC7)cc(O)c6nc-5c4c3/C2=N/O)NC(=O)/C(C)=C\C=C\[C@H](C)[C@H](O)[C@@H](C)[C@@H](O)[C@@H](C)[C@H](OC(C)=O)[C@@H]1C [Example 5, 11-Deoxy-11-hydroxyimino-1′,4-didehydro-1-deoxy-1,4-dihydro-3′-hydroxy-5′-[4-(2-methylpropyl)-1-piperazinyl]-1-oxo-rifamycin VIII]	0.06 to 31 ng/mL (≈ 0.0628 to 32.4 nM)	500 to 31200 ng/mL (≈ 523 to 32700 nM)	125 to 8000 ng/mL (≈ 131 to 8370 nM)	0.5 to 125 ng/mL (≈ 0.523 to 131 nM)
CCCCN1CCN(c2cc(O)c3nc4c5c6c7c(C)c(O)c5c(=O)c(c-4oc3c2)NC(=O)/C(C)=C\C=C\[C@H](C)[C@H](O)[C@@H](C)[C@@H](O)[C@@H](C)[C@H](OC(C)=O)[C@H](C)[C@@H](OC)/C=C/O[C@@](C)(O7)/C6=N\O)CC1 [Example 10, 11-Deoxy-11-hydroxyimino-1′,4-didehydro-1-deoxy-1,4-dihydro-3′-hydroxy-5′-(4-butyl-1-piperazinyl)-1-oxo-rifamycin VIII]	0.06 to 31 ng/mL (≈ 0.0628 to 32.4 nM)	500 to 31200 ng/mL (≈ 523 to 32700 nM)	125 to 8000 ng/mL (≈ 131 to 8370 nM)	0.5 to 125 ng/mL (≈ 0.523 to 131 nM)
CO[C@H]1/C=C/O[C@@]2(C)Oc3c(C)c(O)c4c(=O)c(c5oc6cc(N7CCCC7)cc(O)c6nc-5c4c3/C2=N/O)NC(=O)/C(C)=C\C=C\[C@H](C)[C@H](O)[C@@H](C)[C@@H](O)[C@@H](C)[C@H](OC(C)=O)[C@@H]1C [Example 16, 11-Deoxy-11-hydroxyimino-1′,4-didehydro-1-deoxy-1,4-dihydro-3′-hydroxy-5′-(pyrrolidin-1-yl)-1-oxo-rifamycin VIII]	0.06 to 31 ng/mL (≈ 0.0678 to 35 nM)	500 to 31200 ng/mL (≈ 565 to 35300 nM)	125 to 8000 ng/mL (≈ 141 to 9040 nM)	0.5 to 125 ng/mL (≈ 0.565 to 141 nM)
CO[C@H]1/C=C/O[C@@]2(C)Oc3c(C)c(O)c4c(=O)c(c5oc6cc(N7CC[C@@H](N)C7)cc(O)c6nc-5c4c3/C2=N/O)NC(=O)/C(C)=C\C=C\[C@H](C)[C@H](O)[C@@H](C)[C@@H](O)[C@@H](C)[C@H](OC(C)=O)[C@@H]1C [Example 15, 11-Deoxy-11-hydroxyimino-1′,4-didehydro-1-deoxy-1,4-dihydro-3′-hydroxy-5′-(3-amino-pyrrolidin-1-yl)-1-oxo-rifamycin VIII]	0.06 to 31 ng/mL (≈ 0.0667 to 34.4 nM)	500 to 31200 ng/mL (≈ 556 to 34700 nM)	125 to 8000 ng/mL (≈ 139 to 8890 nM)	0.5 to 125 ng/mL (≈ 0.556 to 139 nM)
CO[C@H]1/C=C/O[C@@]2(C)Oc3c(C)c(O)c4c(c3/C2=N/OCC(=O)O)C2=NC3(CCN(CC(C)C)CC3)NC2=C(NC(=O)/C(C)=C\C=C\[C@H](C)[C@H](O)[C@@H](C)[C@@H](O)[C@@H](C)[C@H](OC(C)=O)[C@@H]1C)C4=O [Example 21, 11-Deoxy-11-(4-carboxymethoxyimino)-1′,4-didehydro-1-deoxy-1,4-dihydro-5′-(2-methylpropyl)-1-oxo-rifamycin XIV]	0.06 to 31 ng/mL (≈ 0.0652 to 33.7 nM)	500 to 31200 ng/mL (≈ 543 to 34000 nM)	125 to 8000 ng/mL (≈ 136 to 8690 nM)	0.5 to 125 ng/mL (≈ 0.543 to 136 nM)
CO[C@H]1/C=C/O[C@@]2(C)Oc3c(C)c(O)c4c(c3/C2=N/O)C2=NC3(CCN(CC(C)C)CC3)NC2=C(NC(=O)/C(C)=C\C=C\[C@H](C)[C@H](O)[C@@H](C)[C@@H](O)[C@@H](C)[C@H](OC(C)=O)[C@@H]1C)C4=O [Example 4, 11-Deoxy-11-hydroxyimino-1′,4-didehydro-1-deoxy-1,4-dihydro-5′-(2-methylpropyl)-1-oxo-rifamycin XIV]	0.06 to 31 ng/mL (≈ 0.0696 to 36 nM)	500 to 31200 ng/mL (≈ 580 to 36300 nM)	125 to 8000 ng/mL (≈ 145 to 9280 nM)	0.5 to 125 ng/mL (≈ 0.58 to 145 nM)
CO[C@H]1/C=C/O[C@@]2(C)Oc3c(C)c(O)c4c(=O)c(c5oc6cc(N7CCN(CC8CCCCC8)CC7)cc(O)c6nc-5c4c3/C2=N/O)NC(=O)/C(C)=C\C=C\[C@H](C)[C@H](O)[C@@H](C)[C@@H](O)[C@@H](C)[C@H](OC(C)=O)[C@@H]1C [Example 11, 11-Deoxy-11-hydroxyimino-1′,4-didehydro-1-deoxy-1,4-dihydro-3′-hydroxy-5′-(4-cyclohexylmethyl-1-piperazinyl)-1-oxo-rifamycin VIII]	0.06 to 31 ng/mL (≈ 0.0602 to 31.1 nM)	500 to 31200 ng/mL (≈ 502 to 31400 nM)	125 to 8000 ng/mL (≈ 125 to 8030 nM)	0.5 to 125 ng/mL (≈ 0.502 to 125 nM)
CCN1CCN(c2cc(O)c3nc4c5c6c7c(C)c(O)c5c(=O)c(c-4oc3c2)NC(=O)/C(C)=C\C=C\[C@H](C)[C@H](O)[C@@H](C)[C@@H](O)[C@@H](C)[C@H](OC(C)=O)[C@H](C)[C@@H](OC)/C=C/O[C@@](C)(O7)/C6=N\O)CC1 [Example 8, 11-Deoxy-11-hydroxyimino-1′,4-didehydro-1-deoxy-1,4-dihydro-3′-hydroxy-5′-(4-ethyl-1-piperazinyl)-1-oxo-rifamycin VIII]	0.06 to 31 ng/mL (≈ 0.0647 to 33.4 nM)	500 to 31200 ng/mL (≈ 539 to 33700 nM)	125 to 8000 ng/mL (≈ 135 to 8620 nM)	0.5 to 125 ng/mL (≈ 0.539 to 135 nM)
CO[C@H]1/C=C/O[C@@]2(C)Oc3c(C)c(O)c4c(=O)c(c5oc6cc(N7CCOCC7)cc(O)c6nc-5c4c3/C2=N/O)NC(=O)/C(C)=C\C=C\[C@H](C)[C@H](O)[C@@H](C)[C@@H](O)[C@@H](C)[C@H](OC(C)=O)[C@@H]1C [Example 6, 11-Deoxy-11-hydroxyimino-1′,4-didehydro-1-deoxy-1,4-dihydro-3′-hydroxy-5′-(morpholin-4-yl)-1-oxo-rifamycin VIII]	0.06 to 31 ng/mL (≈ 0.0666 to 34.4 nM)	500 to 31200 ng/mL (≈ 555 to 34700 nM)	125 to 8000 ng/mL (≈ 139 to 8880 nM)	0.5 to 125 ng/mL (≈ 0.555 to 139 nM)
